According to US20240365736A1, “COMPOSITIONS AND METHODS FOR TARGETED DEGRADATION OF PROTEINS IN A PLANT CELL” (Oerth Bio LLC, priority 2021, published 2024):

Tested on: Matricaria recutita, Diplotaxis tenuifolia, Agrostis spp., Poa annua, or Arabidopsis thaliana
Experiment: Plant phenotyping assay (herbicidal phenotypes, 96-well plates); note: key: '+++' is highly active; '++' is moderately active; '+' is weakly active; '−' is inactive
Assay type: in vivo
Conditions: visual score of herbicidal phenotypes after seven days; 238, 475, 950, and 1900 g ai/ha (50-400 uM)
Procedure: Seeds of Matricaria recutita, Diplotaxis tenuifolia, Agrostis spp., Poa annua, or Arabidopsis thaliana were sown into 96-well plates containing 200 μl of growth media [0.5× Murashige and Skoog (MS) basal media (Sigma-Aldrich), 2.5 mM 2-(N-morpholino) ethanesulfonic acid (MES—Sigma-Aldrich), 0.7 g/L Phytagar (Invitrogen); pH 5.7]. Three to five seeds were distributed per well. Plates were placed under fifteen hours of light at 23° C., 65% humidity in a controlled environment growth chamber. After approximately three days, test compounds and controls were mixed with acetone and emulsified with an equal volume of 3% methyl ester of rapeseed oil (Mero), and applied to plants at concentrations of 238, 475, 950, and 1900 g ai/ha (50-400 uM).

| Structure (SMILES) | Plant Activity |
| --- | --- |
| O=C1CCC(N2C(=O)c3cccc(OCCOCCOCCOc4cccc(C(=O)C5C(=O)CCCC5=O)c4Cl)c3C2=O)C(=O)N1 (centres unmarked) [Compound 1, 4-[2-[2-[2-[2-chloro-3-(2,6-dioxocyclohexanecarbonyl)phenoxy]ethoxy]ethoxy]-ethoxy]-2-(2,6-dioxo-3-piperidyl)isoindoline-1,3-dione] | ++ |
| O=C(COc1cccc2c1C(=O)N(C1CCC(=O)NC1=O)C2=O)NCCOCCOc1cccc(C(=O)C2C(=O)CCCC2=O)c1Cl (centres unmarked) [Compound 1-A, N-(2-(2-(2-Chloro-3-(2,6-dioxocyclohexane-1-carbonyl)phenoxy)ethoxy)ethyl)-2-((2-(2,6-dioxopiperidin-3-yl)-1,3-dioxoisoindolin-4-yl)oxy)acetamide] | + |
| O=C1CCC(N2C(=O)c3ccc(N4CCN(CCOCCOCCOc5cccc(C(=O)C6C(=O)CCCC6=O)c5Cl)CC4)cc3C2=O)C(=O)N1 (centres unmarked) [Compound 2, 5-[4-[2-[2-[2-[2-chloro-3-(2,6-dioxocyclohexane-carbonyl)phenoxy]ethoxy]-ethoxy]ethyl]piperazin-1-yl]-2-(2,6-dioxo-3-piperidyl)isoindoline-1,3-dione] | + |
| O=C1CCC(N2C(=O)c3ccc(N4CCN(CCOCCOCCOCCN5CCC(Oc6cccc(C(=O)C7C(=O)CCCC7=O)c6Cl)CC5)CC4)cc3C2=O)C(=O)N1 (centres unmarked) [Compound 2-A, 5-[4-[2-[2-[2-[2-[4-[2-Chloro-3-(2,6-dioxocyclohexanecarbonyl)phenoxy]-1-piperidyl]ethoxy]ethoxy]ethoxy]ethyl]piperazin-1-yl]-2-(2,6-dioxo-3-piperidyl)isoindoline-1,3-dione] | + |
| O=C1CCC(N2C(=O)c3ccc(N4CCN(CCCC5CCN(CCOCCOc6cccc(C(=O)C7C(=O)CCCC7=O)c6Cl)CC5)CC4)cc3C2=O)C(=O)N1 (centres unmarked) [Compound 2-B, 5-(4-(3-(1-(2-(2-(2-Chloro-3-(2,6-dioxocyclohexane-1-carbonyl)phenoxy)ethoxy)ethyl)piperidin-4-yl)propyl)piperazin-1-yl)-2-(2,6-dioxopiperidin-3-yl)isoindoline-1,3-dione] | + |
| CS(=O)(=O)c1ccc(C(=O)C2C(=O)CCCC2=O)c(Cl)c1OCCOCCOCCOc1ccc2c(c1)C(=O)N(C1CCC(=O)NC1=O)C2=O (centres unmarked) [Compound 3, 5-[2-[2-[2-[2-chloro-3-(2,6-dioxocyclohexanecarbonyl)-6-methylsulfonyl-phenoxy]ethoxy]ethoxy]ethoxy]-2-(2,6-dioxo-3-piperidyl)isoindoline-1,3-dione] | ++ |
| COc1cnc(OC)n2nc(NS(=O)(=O)c3c(OCCOc4ccc5c(c4)C(=O)N(C4CCC(=O)NC4=O)C5=O)cccc3C(F)(F)F)nc12 (centres unmarked) [Compound 4, N-(5,8-dimethoxy-[1,2,4]triazolo[1,5-c]pyrimidin-2-yl)-2-[2-[2-(2,6-dioxo-3-piperidyl)-1,3-dioxo-isoindolin-5-yl]oxyethoxy]-6-(trifluoromethyl)benzenesulfonamide] | + |
| COc1cnc(OC)n2nc(NS(=O)(=O)c3c(OCCOCCOCCOCCOCCOc4ccc5c(c4)C(=O)N(C4CCC(=O)NC4=O)C5=O)cccc3C(F)(F)F)nc12 (centres unmarked) [Compound 4-A, N-(5,8-Dimethoxy-[1,2,4]triazolo[1,5-c]pyrimidin-2-yl)-2-((14-((2-(2,6-dioxopiperidin-3-yl)-1,3-dioxoisoindolin-5-yl)oxy)-3,6,9,12-tetraoxatetradecyl)oxy)-6-(trifluoromethyl)benzenesulfonamide] | +++ |
| COc1cnc(OC)n2nc(NS(=O)(=O)c3c(OCCOCCOCCOc4ccc5c(c4)C(=O)N(C4CCC(=O)NC4=O)C5=O)cccc3C(F)(F)F)nc12 (centres unmarked) [Compound 4-C, N-(5,8-Dimethoxy-[1,2,4]triazolo[1,5-c]pyrimidin-2-yl)-2-(2-(2-(2-((2-(2,6-dioxopiperidin-3-yl)-1,3-dioxoisoindolin-5-yl)oxy)ethoxy)ethoxy)ethoxy)-6-(trifluoromethyl)benzenesulfonamide] | +++ |
| COc1cnc(OC)n2nc(NS(=O)(=O)c3c(OCCOCCOCCOCCOc4ccc5c(c4)C(=O)N(C4CCC(=O)NC4=O)C5=O)cccc3C(F)(F)F)nc12 (centres unmarked) [Compound 4-D, N-(5,8-Dimethoxy-[1,2,4]triazolo[1,5-c]pyrimidin-2-yl)-2-(2-(2-(2-(2-((2-(2,6-dioxopiperidin-3-yl)-1,3-dioxoisoindolin-5-yl)oxy)ethoxy)ethoxy)ethoxy)ethoxy)-6-(trifluoromethyl)benzenesulfonamide] | +++ |
| COc1cnc(OC)n2nc(NS(=O)(=O)c3c(OCCOCCOCCOCCOCCOCCOc4cccc5c4C(=O)N(C4CCC(=O)NC4=O)C5=O)cccc3C(F)(F)F)nc12 (centres unmarked) [Compound 4-E, N-(5,8-Dimethoxy-[1,2,4]triazolo[1,5-c]pyrimidin-2-yl)-2-((17-((2-(2,6-dioxopiperidin-3-yl)-1,3-dioxoisoindolin-4-yl)oxy)-3,6,9,12,15-pentaoxaheptadecyl)oxy)-6-(trifluoromethyl)benzenesulfonamide] | ++ |
| COc1cnc(OC)n2nc(NS(=O)(=O)c3c(OCCOCCOCCOCCOCCNc4cccc5c4C(=O)N(C4CCC(=O)NC4=O)C5=O)cccc3C(F)(F)F)nc12 (centres unmarked) [Compound 4-F, N-(5,8-Dimethoxy-[1,2,4]triazolo[1,5-c]pyrimidin-2-yl)-2-((14-((2-(2,6-dioxopiperidin-3-yl)-1,3-dioxoisoindolin-4-yl)amino)-3,6,9,12-tetraoxatetradecyl)oxy)-6-(trifluoromethyl)benzenesulfonamide] | +++ |
| COc1cnc(OC)n2nc(NS(=O)(=O)c3c(OCCOCCOCCOCCNC(=O)COc4cccc5c4C(=O)N(C4CCC(=O)NC4=O)C5=O)cccc3C(F)(F)F)nc12 (centres unmarked) [Compound 4-G, N-(2-(2-(2-(2-(2-(N-(5,8-Dimethoxy-[1,2,4]triazolo[1,5-c]pyrimidin-2-yl)sulfamoyl)-3-(trifluoromethyl)phenoxy)ethoxy)ethoxy)ethoxy)ethyl)-2-((2-(2,6-dioxopiperidin-3-yl)-1,3-dioxoisoindolin-4-yl)oxy)acetamide] | ++ |
| COc1cnc(OC)n2nc(NS(=O)(=O)c3c(OCCOCCOCCOCCOCCNC(=O)COc4cccc5c4C(=O)N(C4CCC(=O)NC4=O)C5=O)cccc3C(F)(F)F)nc12 (centres unmarked) [Compound 4-H, N-(14-(2-(N-(5,8-Dimethoxy-[1,2,4]triazolo[1,5-c]pyrimidin-2-yl)sulfamoyl)-3-(trifluoromethyl)phenoxy)-3,6,9,12-tetraoxatetradecyl)-2-((2-(2,6-dioxopiperidin-3-yl)-1,3-dioxoisoindolin-4-yl)oxy)acetamide] | +++ |
| COc1cnc(OC)n2nc(NS(=O)(=O)c3c(OC4CCN(CCOCCOCCN5CCN(c6ccc7c(c6)C(=O)N(C6CCC(=O)NC6=O)C7=O)CC5)CC4)cccc3C(F)(F)F)nc12 (centres unmarked) [Compound 4-I, N-(5,8-Dimethoxy-[1,2,4]triazolo[1,5-c]pyrimidin-2-yl)-2-((1-(2-(2-(2-(4-(2-(2,6-dioxopiperidin-3-yl)-1,3-dioxoisoindolin-5-yl)piperazin-1-yl)ethoxy)ethoxy)ethyl)piperidin-4-yl)oxy)-6-(trifluoromethyl)benzenesulfonamide] | + |
| COc1cnc(OC)n2nc(NS(=O)(=O)c3c(OCCOCCOCCN4CCC(CCCN5CCN(c6ccc7c(c6)C(=O)N(C6CCC(=O)NC6=O)C7=O)CC5)CC4)cccc3C(F)(F)F)nc12 (centres unmarked) [Compound 4-J, N-(5,8-Dimethoxy-[1,2,4]triazolo[1,5-c]pyrimidin-2-yl)-2-(2-(2-(2-(4-(3-(4-(2-(2,6-dioxopiperidin-3-yl)-1,3-dioxoisoindolin-5-yl)piperazin-1-yl)propyl)piperidin-1-yl)ethoxy)ethoxy)ethoxy)-6-(trifluoromethyl)benzenesulfonamide] | − |
| COc1cnc(OC)n2nc(NS(=O)(=O)c3c(OCCOCCN4CCC(CCCN5CCN(c6ccc7c(c6)C(=O)N(C6CCC(=O)NC6=O)C7=O)CC5)CC4)cccc3C(F)(F)F)nc12 (centres unmarked) [Compound 4-K, N-(5,8-Dimethoxy-[1,2,4]triazolo[1,5-c]pyrimidin-2-yl)-2-(2-(2-(4-(3-(4-(2-(2,6-dioxopiperidin-3-yl)-1,3-dioxoisoindolin-5-yl)piperazin-1-yl)propyl)piperidin-1-yl)ethoxy)ethoxy)-6-(trifluoromethyl)benzenesulfonamide] | + |
| COc1cnc(OC)n2nc(NS(=O)(=O)c3c(OCCN4CCC(CCCN5CCN(c6ccc7c(c6)C(=O)N(C6CCC(=O)NC6=O)C7=O)CC5)CC4)cccc3C(F)(F)F)nc12 (centres unmarked) [Compound 4-L, N-(5,8-Dimethoxy-[1,2,4]triazolo[1,5-c]pyrimidin-2-yl)-2-(2-(4-(3-(4-(2-(2,6-dioxopiperidin-3-yl)-1,3-dioxoisoindolin-5-yl)piperazin-1-yl)propyl)piperidin-1-yl)ethoxy)-6-(trifluoromethyl)benzenesulfonamide] | − |
| COc1cnc(OC)n2nc(NS(=O)(=O)c3c(OCCCC4CCN(CCOCCOc5ccc6c(c5)C(=O)N(C5CCC(=O)NC5=O)C6=O)CC4)cccc3C(F)(F)F)nc12 (centres unmarked) [Compound 4-M, N-(5,8-Dimethoxy-[1,2,4]triazolo[1,5-c]pyrimidin-2-yl)-2-(3-(1-(2-(2-((2-(2,6-dioxopiperidin-3-yl)-1,3-dioxoisoindolin-5-yl)oxy)ethoxy)ethyl)piperidin-4-yl)propoxy)-6-(trifluoromethyl)benzenesulfonamide] | + |
| COc1cnc(OC)n2nc(NS(=O)(=O)c3c(OCCCC4CCN(CCOCCOCCOc5ccc6c(c5)C(=O)N(C5CCC(=O)NC5=O)C6=O)CC4)cccc3C(F)(F)F)nc12 (centres unmarked) [Compound 4-N, N-(5,8-Dimethoxy-[1,2,4]triazolo[1,5-c]pyrimidin-2-yl)-2-(3-(1-(2-(2-(2-((2-(2,6-dioxopiperidin-3-yl)-1,3-dioxoisoindolin-5-yl)oxy)ethoxy)ethoxy)ethyl)piperidin-4-yl)propoxy)-6-(trifluoromethyl)benzenesulfonamide] | − |
